In one experiment the target is Histamine H3 receptor (Cavia porcellus, UniProt Q9JI35). The experiment in a line: Inhibition of [3H]N-alpha-methylhistamine binding to guinea pig brain Histamine H3 receptor.
Experiment [1] addresses Histamine H1 receptor (Cavia porcellus) (UniProt P31389). Nature of the experiment: H1-mediated bronchoconstrictor effect after intravenous administration in anesthetized guinea pig. The settings on record: Lung. The class given is functional, organism-based.
Another experiment addresses Histamine H1 receptor (Cavia porcellus, UniProt P31389). Nature of the experiment: Binding affinity to H-1 receptor was determined in guinea pig brain tissue using [3H]- […] ligand.
For experiment [2], the target named is Histamine H3 receptor (Cavia porcellus) (UniProt Q9JI35). As to conditions: Ileum.
Description: (§1) In vitro effective concentration for H-3-mediated contraction of guinea pig ileum
For experiment [3], the target named is Histamine H1 receptor (Cavia porcellus) (UniProt P31389). As to conditions: Ileum.
Description: In vitro effective concentration for H1-mediated contraction of guinea pig ileum
Experiment [4] has as its target Histamine H3 receptor (Cavia porcellus) (UniProt Q9JI35). As to conditions: Ileum. The source holds these as a separate data set.
Description: as §1
The target in experiment [5] is Histamine H1 receptor (Cavia porcellus) (UniProt P31389). The settings on record: Ileum. This is another data set of the same source.
Description: In vitro effective concentration for H-1-mediated contraction of guinea pig ileum

This is an account of results in ChEMBL document CHEMBL1131557 (Bioorg Med Chem Lett, 1998).

SMILES strings stand for the structures. Some results are limits rather than exact numbers.

Histamine H3 receptor, sequence (Q9JI35 whole entry): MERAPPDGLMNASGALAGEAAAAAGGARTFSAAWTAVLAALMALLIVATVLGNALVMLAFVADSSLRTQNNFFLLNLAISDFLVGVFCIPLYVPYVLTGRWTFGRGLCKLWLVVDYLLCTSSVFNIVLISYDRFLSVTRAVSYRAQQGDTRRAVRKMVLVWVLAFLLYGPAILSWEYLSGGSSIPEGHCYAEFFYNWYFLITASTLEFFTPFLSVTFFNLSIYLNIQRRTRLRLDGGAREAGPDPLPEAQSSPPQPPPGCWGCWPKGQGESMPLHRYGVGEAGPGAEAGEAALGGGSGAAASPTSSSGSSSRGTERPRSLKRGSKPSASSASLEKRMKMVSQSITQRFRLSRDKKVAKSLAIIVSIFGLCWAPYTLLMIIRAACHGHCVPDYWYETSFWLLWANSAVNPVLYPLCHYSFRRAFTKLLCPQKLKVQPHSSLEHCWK
Histamine H1 receptor (Cavia porcellus), sequence (P31389 whole entry): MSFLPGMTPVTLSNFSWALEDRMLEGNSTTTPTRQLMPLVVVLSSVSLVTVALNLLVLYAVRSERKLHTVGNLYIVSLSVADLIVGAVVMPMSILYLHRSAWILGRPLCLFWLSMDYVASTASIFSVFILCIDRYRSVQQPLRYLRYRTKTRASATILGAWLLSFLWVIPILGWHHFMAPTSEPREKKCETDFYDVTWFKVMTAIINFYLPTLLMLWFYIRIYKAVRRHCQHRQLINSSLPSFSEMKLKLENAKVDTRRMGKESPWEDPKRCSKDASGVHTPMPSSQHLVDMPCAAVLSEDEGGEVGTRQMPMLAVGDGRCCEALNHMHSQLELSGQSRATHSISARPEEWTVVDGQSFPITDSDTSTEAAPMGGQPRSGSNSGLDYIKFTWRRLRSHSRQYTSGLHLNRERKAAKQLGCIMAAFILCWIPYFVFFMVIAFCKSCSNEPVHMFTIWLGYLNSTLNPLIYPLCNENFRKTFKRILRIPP
Histamine H3 receptor (Cavia porcellus), sequence (Q9JI35 whole entry): as the sequence (Q9JI35 whole entry) above
Histamine H1 receptor, sequence (P31389 whole entry): as the sequence (P31389 whole entry) above

Regarding `c1ccc(C[C@H]2NCC[C@@H]2c2c[nH]cn2)cc1`, the Ki on Histamine H3 receptor is greater than 2000 nM.
The same measure, in the same setting: to `C[C@@H]1CNC[C@H]1c1cnc[nH]1` belongs 5 nM; to `C[C@@H]1NCC[C@@H]1c1c[nH]cn1`, 59 nM; to `C[C@H]1C[C@H](c2cnc[nH]2)CN1`, 76 nM.
Still for that read-out and setting: the value for `C[C@]1(c2c[nH]cn2)CCNC1` was 170 nM.
Take `C[C@H]1NC[C@@H]1c1c[nH]cn1`: on Histamine H3 receptor, the inhibitory constant (Ki) is 7 nM. For the same molecule, in experiment [1], the 50% effective dose (ED50) is greater than 0.3 mg/kg.
`C[C@@H](N)Cc1c[nH]cn1` showed an inhibition constant (Ki) at Histamine H1 receptor greater than 10 µM. Also, the pD2 turned out to be 8.2 in experiment [2] and 5.4 in experiment [3].
The molecule `c1nc(C2CCNC2)c[nH]1` (stereo not given) returned a Ki at Histamine H3 receptor of 2 nM. This molecule had an ED50 in experiment [1] of 0.3 mg/kg.
With `C[C@H]1CNC[C@@H]1c1c[nH]cn1`, the Ki was 2.3 nM at Histamine H3 receptor and greater than 10 µM on Histamine H1 receptor. Moreover, the pD2 in experiment [4] is 7.5; in experiment [5] it was less than 4.
On Histamine H3 receptor, `CC[C@H]1NCC[C@@H]1c1cnc[nH]1` gave an inhibition constant Ki of 150 nM.
For the molecule `C[C@H]1NCCC[C@@H]1c1cnc[nH]1`, at Histamine H3 receptor, the Ki is greater than 2000 nM.
The same measure, in the same setting: the value for `C[C@H]1NCC[C@@H]1c1c[nH]cn1` was 3 nM; that for `C[C@H]1CNC[C@H]1c1c[nH]cn1` was 3 nM.

By Ki is commonly meant a dissociation constant, usually derived from enzyme kinetics or from competition with a known ligand. As usually defined, the ED50 is the dose that gives a 50% effect, or the effect in half of the subjects. High values mean a need for a large dose, low ones an effect at a small dose.
